Values of other authors as cited in US11986479B2 (priority 2022, dated 2024).
Read-outs that look alike come from different tables or passages of the source.

Experiments:
[1] = not given; remark: listed apart in the source
[2] = not given; remark: listed apart in the source

Cn1cnc([N+](=O)[O-])c1Sc1ncnc2nc[nH]c12 [Azathoprine, 1H-Purine, 6-[(1-methyl-4-nitro-1H-imidazol-5-yl)thio]-]
stability in the presence of sulfhydryl compounds (cysteine, glutathione, hydrogen sulfide): Conversion to mercaptopurine also occurs | stability in solution (excess sodium hydroxide (0.1N), especially on warming): hydrolysis to mercaptopurine occurs | stability in solution (neutral or acid pH): stable | solubility in alkali ([1]; solutions of alkali hydroxides / one molar equivalent of alkali): may be dissolved | solubility in water ([1]; water): insoluble

C[C@@H]1C[C@H]2[C@@H]3CCC4=CC(=O)C=C[C@]4(C)[C@@]3(F)[C@@H](O)C[C@]2(C)[C@@]1(O)C(=O)CO [Dexamethasone, 9-fluoro-11β,17,21-trihydroxy-16α-methylpregna-1,4-diene-3,20-dione]
stability in air (air): stable | solubility in water ([1]; water): practically insoluble

CCN(CC)C(=S)SSC(=S)N(CC)CC [Disulfiram, bis(diethylthiocarbamoyl) disulfide]
diarrhea in list of adverse reactions ([2]; in vivo): not mentioned | soluble in alcohol ([1]; alcohol): about 3.8 g in 100 mL | soluble in water ([1]; water): about 20 mg in 100 mL

Sc1ncnc2nc[nH]c12 [Mercaptopurine, 6H-purine-6-thione, 1,7-dihydro-, monohydrate]
patients who experienced diarrhea ([2]; leukemia patients): 9% | solubility in ether ([1]; ether): practically insoluble
